Results: article PMC11982232, “Factors affecting irreversible inhibition of EGFR and influence of chirality on covalent binding” (Communications Chemistry, 2025)

Legend:
[1] = system: GSH; assay: GSH reactivity (glutathione half-life); format: physicochemical; details: 4.6 mM glutathione (GSH) in phosphate buffer; 4.6 mM GSH, 50 µM compound, pH 7.4 phosphate buffer, 37 °C; read-out: GSH t1/2 (converted)
Experimental: Compounds were suspended to 10 mM in 100% DMSO and were added to 4.6 mM GSH to achieve the final compound concentration of 50 µM in pH 7.4 phosphate buffer before incubating at 37 °C. Compound reaction with GSH was monitored by LC-MS on a Waters Acquity UPLC system with PDA and ELSD operating in positive and negative ion electrospray mode, employing an Acquity UPLC BEH C18, […], 2.1 × 50 mm column with 0.1% formic acid and water-acetonitrile (5–95%) for gradient elution over 4 minutes.

[2] = target: T1, EGFR WT (Homo sapiens, UniProt P00533); assay: TR-FRET probe displacement assay, EGFR WT; format: binding; details: for WT pIC50 / IC50: 30 min incubation, mean of at least 3 replicates; for IC50: read-out: WT pIC50 (converted)
T1 construct: made in house; host or cells: Sf9 insect cells (MultiBac baculovirus)
Experimental: (§1) The binding mode of gefitinib, typical of an anilinoquinazoline-based kinase inhibitor, is well characterised, with the morpholine side-chain extending into the solvent exposed region where a variety of substituents are tolerated. […] Accordingly, probe compound 6 was prepared, in which the morpholine was replaced by a piperazine and a BODIPY fluorophore was attached via a 4-aminobutanoate spacer (Fig. 3a). A related sapitinib-derived tracer has subsequently been described. Compound 6 was employed in a time-resolved Förster-resonance energy transfer (TR-FRET) assay with EGFR bound to a terbium-containing antibody (Fig. 3b). In line with our previous work exploring the activity of anilinoquinazoline-based acrylamide TCIs[14], the incubation time for the assay was set at 30 mins.
(§2) Compounds (dissolved to 10 mM in DMSO) were dispensed into black low-volume 384 well assay plates (Corning) over a final concentration range of 100000, 30,000, 10,000, 3000, 1000, 300, 100, 30, 10, and 3 nM using an Echo 550 (Labcyte). Positive control compound and DMSO as a negative control were dispensed into the first and last well, respectively. Each well was backfilled with DMSO to a final volume of 200 nl, resulting in final assay DMSO concentrations of 1%. […] Plates were read using a PheraStar FS (BMG Labtech) at Ex337nm […]. The data were analysed using GraphPad Prism/Dotmatics Studies Software. Assays were conducted in technical replicate and repeated as a biological duplicate.

[3] = target: T2, EGFR DM (L858R/T790M) (Homo sapiens, UniProt P00533, L858R/T790M); assay: TR-FRET probe displacement assay, EGFR DM; format: binding; details: for DM pIC50 / IC50: 30 min incubation, mean of at least 3 replicates; for IC50: read-out: DM pIC50 (converted)
T2 construct: His tag
Experimental: as §1, §2

[4] = system: pEGFR in WT EGFR overexpressing A431 cells; assay: Cellular pEGFR inhibition by HTRF in A431 cells; format: cell-based; details: Homo sapiens, A-431, n = 1, read-out: pIC50 (A431) cellular pEGFR inhibition (converted)
Experimental: (§3) Cells were plated at 20,000 cells per well in 96 well plates and placed at 37°C 5% CO2. Once adhered (after 24 h) cells were treated with compounds dissolved in DMSO at a final concentration of 0.1% DMSO in media. Compounds were diluted in media then added to cells for 2.5 hours in duplicate. 100 ng/ml EGF (ThermoFisher, PHG0311) was is added to all compound treated cells as well as a control for 30 mins. Compound and media were removed from the cells, then 50ul of HTRF lysis buffer was added (lysis buffer was diluted from 4X stock to 1X in DI water, with 1% blocking agent also added). Cells were lysed on a plate shaker (2000 rpm) for 30 minutes at room temperature. pEGFR expression was monitored using the Cisbio Phospho-EGFR (Tyr1068) cellular kit (64EG1PEH). Total EGFR expression was monitored using the Cisbio Total EGFR cellular kit (64NG1PEH) as per manufacturer’s instructions. Fluorescence emission was read at two different wavelengths (665 nm and 620 nm) on a PheraStar. Results were calculated as the ratio of pEGFR/ total EGFR and then the percentage of 0 µM control. Data is n = 1 from 2 replicates.

[5] = system: pEGFR in DM expressing H1975 cells; assay: Cellular pEGFR inhibition by HTRF in H1975 cells; format: cell-based; details: Homo sapiens, NCI-H1975, n = 1, read-out: pIC50 (H1975) cellular pEGFR inhibition (converted)
Experimental: as §3

[6] = system: A431 cells; assay: Growth inhibition in A431 cells (SRB, 72 h); format: cell-based; details: Homo sapiens, A-431, A431 cell viability, n = 1
Experimental: A431 cells purchased from ECACC, Cat. 85090402, were plated on day 0 in a 96-well plate at a density known to allow for exponential growth over 72 h in DMEM (Sigma-Aldrich, Cat No. D5796) supplemented with 10% FBS (Gibco, Cat No. 10270-106). On day 1, the compounds were diluted to the required concentration in DMEM + 10% FBS media, ensuring that the final DMSO concentration was 0.1% once added to cells. The cells were then incubated for 72 h at 37 °C with 5% CO2. Cells were then fixed by adding 50% (wt/vol) TCA to each well of the plate and left at 4 °C for 1 h. The plates were then washed thoroughly with water, 100 μL of 0.4% SRB solution was added to the wells, and left at room temperature for 30 min. The plates were rinsed with 1% AcOH and then left to air-dry in a drying cabinet for 1 h. Once dry, 100 μL of 10 mM tris pH 10.5 was added to each well and the plates were placed on a plate shaker for 10 min. The absorbance was read at 570 nm using a FluoStar Omega plate reader. Data is n = 1 from 3 replicates, […]

[7] = target: T3, WT EGFR (Homo sapiens, UniProt P00533); assay: Intact protein mass spectrometry; format: binding; details: 15 µM compound, 4 µM EGFR, 4 hr, ambient temperature
T3 construct: AssayQuant Technologies Inc. (contract measurement)
Experimental: Compounds were suspended to 10 mM in 100% DMSO and were added to 4 µM EGFR to achieve the final compound concentration of 15 µM in 1% DMSO, in 25 mM TRIS pH8, 150 mM NaCL, 5% glycerol before incubating at ambient temperature for the 4 hr time prior to analysis. […] 1 µL of purified protein (~1 mg/mL) was injected onto a MS Pac DS-10 Desalter cartridge ((Thermo Fisher Scientific), PN: 089170, 2.1 × 10 mm) for desalting and reversed phase separation at 70 °C. The mobile phase was 0.1% (v/v) formic acid in LC-MS grade water (A) and LC-MS grade acetonitrile (B) with separation performed over 7.5 min. […] Proteins were detected in positive ion mode using electrospray ionisation with nebuliser pressure of 45 psig, drying gas flow of 5 L/min, and source gas temperature of 325 °C. Sheath gas temperature of 400 °C and gas flow of 11 L/min, capillary voltage of 3500 V and nozzle voltage of 2000V were also used. Mass spectra were acquired using MassHunter Acquisition software (version B.08.00) over a mass range of 100–3000 m/z, at a rate of 1 spectra/s and 1000 ms/spectrum in standard mass range (3200 m/z) at 2 GHz. The instrument had been calibrated over the selected mass range prior to analysis.

T2 sequence (P00533 25-1210 T790M/L858R): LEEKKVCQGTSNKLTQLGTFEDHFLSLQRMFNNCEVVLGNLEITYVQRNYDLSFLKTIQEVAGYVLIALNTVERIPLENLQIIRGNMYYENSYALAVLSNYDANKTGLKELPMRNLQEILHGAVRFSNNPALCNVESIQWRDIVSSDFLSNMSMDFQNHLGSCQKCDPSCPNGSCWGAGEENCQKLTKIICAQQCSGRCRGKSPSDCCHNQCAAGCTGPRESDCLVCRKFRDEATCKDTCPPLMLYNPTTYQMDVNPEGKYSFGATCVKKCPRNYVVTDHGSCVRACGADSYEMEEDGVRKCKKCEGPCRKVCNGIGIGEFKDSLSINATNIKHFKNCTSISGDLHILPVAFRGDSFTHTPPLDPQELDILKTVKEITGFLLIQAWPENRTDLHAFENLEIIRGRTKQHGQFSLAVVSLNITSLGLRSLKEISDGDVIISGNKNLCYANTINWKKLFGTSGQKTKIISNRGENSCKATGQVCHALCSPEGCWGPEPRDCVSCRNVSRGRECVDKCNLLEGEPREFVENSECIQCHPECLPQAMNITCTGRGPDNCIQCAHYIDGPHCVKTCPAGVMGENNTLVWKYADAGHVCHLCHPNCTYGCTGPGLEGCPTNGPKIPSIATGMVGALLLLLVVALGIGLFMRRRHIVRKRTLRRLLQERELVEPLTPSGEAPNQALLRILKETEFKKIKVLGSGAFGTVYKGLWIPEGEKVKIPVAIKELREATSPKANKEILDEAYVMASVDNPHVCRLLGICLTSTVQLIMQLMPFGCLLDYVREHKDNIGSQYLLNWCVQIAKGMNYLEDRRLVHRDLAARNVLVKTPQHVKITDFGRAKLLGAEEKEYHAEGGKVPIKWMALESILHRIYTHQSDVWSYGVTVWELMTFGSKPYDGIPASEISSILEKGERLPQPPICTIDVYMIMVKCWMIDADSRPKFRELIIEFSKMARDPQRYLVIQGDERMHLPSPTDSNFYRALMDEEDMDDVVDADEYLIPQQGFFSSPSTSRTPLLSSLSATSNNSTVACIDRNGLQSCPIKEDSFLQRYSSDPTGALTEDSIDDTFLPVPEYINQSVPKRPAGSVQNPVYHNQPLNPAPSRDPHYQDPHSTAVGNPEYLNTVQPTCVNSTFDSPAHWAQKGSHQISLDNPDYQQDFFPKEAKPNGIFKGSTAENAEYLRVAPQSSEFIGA
T1 sequence (P00533 25-1210): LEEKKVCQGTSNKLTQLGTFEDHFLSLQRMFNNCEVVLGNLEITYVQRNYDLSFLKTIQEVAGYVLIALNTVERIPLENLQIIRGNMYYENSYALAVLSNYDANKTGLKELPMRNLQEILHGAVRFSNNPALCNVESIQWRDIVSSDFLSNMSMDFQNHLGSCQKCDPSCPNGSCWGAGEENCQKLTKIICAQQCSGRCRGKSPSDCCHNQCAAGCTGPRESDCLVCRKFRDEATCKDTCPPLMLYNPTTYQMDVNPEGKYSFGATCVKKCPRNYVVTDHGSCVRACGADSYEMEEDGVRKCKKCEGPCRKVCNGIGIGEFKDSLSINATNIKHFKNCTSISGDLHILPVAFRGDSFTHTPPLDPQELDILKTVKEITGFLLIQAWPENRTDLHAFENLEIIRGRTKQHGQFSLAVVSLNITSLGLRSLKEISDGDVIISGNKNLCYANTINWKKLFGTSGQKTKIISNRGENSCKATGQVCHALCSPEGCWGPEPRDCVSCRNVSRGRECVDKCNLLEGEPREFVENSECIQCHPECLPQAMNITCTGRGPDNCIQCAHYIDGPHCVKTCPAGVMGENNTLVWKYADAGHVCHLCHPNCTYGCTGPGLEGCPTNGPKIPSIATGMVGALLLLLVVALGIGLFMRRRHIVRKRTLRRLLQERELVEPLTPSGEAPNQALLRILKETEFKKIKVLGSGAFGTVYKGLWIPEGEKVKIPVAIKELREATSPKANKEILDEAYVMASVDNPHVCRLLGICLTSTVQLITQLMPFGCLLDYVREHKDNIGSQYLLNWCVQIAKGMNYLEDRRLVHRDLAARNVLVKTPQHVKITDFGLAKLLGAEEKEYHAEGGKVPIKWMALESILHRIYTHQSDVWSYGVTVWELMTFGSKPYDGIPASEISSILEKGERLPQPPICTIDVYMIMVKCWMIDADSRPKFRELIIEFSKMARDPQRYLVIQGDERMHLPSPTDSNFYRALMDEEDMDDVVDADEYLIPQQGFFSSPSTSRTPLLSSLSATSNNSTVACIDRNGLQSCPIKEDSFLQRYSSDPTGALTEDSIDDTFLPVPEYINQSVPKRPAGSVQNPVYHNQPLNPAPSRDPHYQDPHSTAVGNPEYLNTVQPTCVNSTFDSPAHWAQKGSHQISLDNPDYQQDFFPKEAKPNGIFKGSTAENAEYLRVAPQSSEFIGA
T3 sequence (P00533 25-1210): as above

Structure (SMILES): C=CC(=O)Nc1cc(Nc2nccc(-c3cn(C)c4ccccc34)n2)c(OC)cc1N(C)CCN(C)C [Compound 2, osimertinib, reference compound]
- half-life at 50 µM [1]: 2.5 h

Structure (SMILES): COc1cc2ncnc(Nc3ccc(F)c(Cl)c3)c2cc1OCCCN1CCN(C(=O)CCCNC(=O)CCc2ccc3n2[B-](F)(F)[N+]2=C(C)C=C(C)C2=C3)CC1 [Compound 6, N-(4-(4-(3-((4-((3-chloro-4-fluorophenyl)amino)-7-methoxyquinazolin-6-yl)oxy)propyl)piperazin-1-yl)-4-oxobutyl)-3-(5,5-difluoro-7,9-dimethyl-5H-5l4,6l4-dipyrrolo[1,2-c:2’,1’-f][1,3,2]diazaborinin-3-yl)propenamide, reference compound]
- Kd ([2]; fluorescent probe): 1600 ± 190 nM
- Kd ([3]; fluorescent probe): 3000 ± 1600 nM

Structure (SMILES): C=CC(=O)N1CCC(Oc2cc3c(Nc4cccc(Cl)c4F)ncnc3cc2OC)CC1 [Compound 7]
- WT pIC50 [2]: 8.8 ± 0.1
- DM pIC50 [3]: 8.4 ± 0.03

Structure (SMILES): C=CC(=O)N1CCC(Oc2cc3c(Nc4ccc(F)c(Cl)c4)ncnc3cc2OC)CC1 [Compound 8]
- WT pIC50 [2]: 8.3 ± 0.07
- DM pIC50 [3]: 8.0 ± 0.6

Structure (SMILES): C=CC(=O)N1CC[C@@H](Oc2cc3c(Nc4ccc(F)c(Cl)c4)ncnc3cc2OC)C1 [Compound 16]
- half-life at 50 µM [1]: 36 h
- IC50 [4]: 79.4 nM
- IC50 [2]: 316 nM
- IC50 [5]: 2510 nM
- GI50 [6]: 316 nM
- IC50 [3]: 100 nM

Structure (SMILES): C=CC(=O)N1CC[C@H](Oc2cc3c(Nc4ccc(F)c(Cl)c4)ncnc3cc2OC)C1 [Compound 17]
- half-life at 50 µM [1]: 41 h
- IC50 [4]: < 10 nM
- IC50 [2]: 5.01 nM
- IC50 [5]: 25.1 nM
- level of protein modification compared to 16 [7]: two-fold increase
- GI50 [6]: 7.94 nM
- IC50 [3]: 6.31 nM

Structure (SMILES): COc1cc2ncnc(Nc3ccc(F)c(Cl)c3)c2cc1O[C@@H]1CCN(C(C)=O)C1 [Compound 22]
- IC50 [2]: 39.8 nM
- IC50 [3]: 25.1 nM

Structure (SMILES): COc1cc2ncnc(Nc3ccc(F)c(Cl)c3)c2cc1O[C@H]1CCN(C(C)=O)C1 [Compound 23]
- IC50 [2]: 126 nM
- IC50 [3]: 31.6 nM
